{
  "source": "patent US7919456B2",
  "about": "“Connective tissue derived polypeptides” (Proteobioactives Pty Ltd., priority 2003, dated 2011)",
  "system": "rat collagen induced arthritis (CIA) model",
  "experiment": "Rat collagen induced arthritis (CIA), prophylactic/therapeutic protocol",
  "format": "in vivo, Female Wistar rats",
  "conditions": "6.3 mg/kg SC",
  "key": {"[1]": {"conditions": "15 days treatment, n = 4, scored 0-4+"}},
  "data": [
    {"compound": "O=C(O)CC([S-])C(=O)O.[Au+]", "note": "(stereo not drawn) [ATM, aurothiomalate]", "values": [
      {"measurement": "Signs of arthritis Day 15 Weight change", "value": "+47 g"},
      {"measurement": "Signs of arthritis Day 18 Weight change", "value": "+04 g"},
      {"measurement": "Mean arthritis scores Day 13", "setting": "[1]", "value": 0.8},
      {"measurement": "Mean arthritis scores Day 15", "setting": "[1]", "value": 2.1},
      {"measurement": "Mean arthritis scores Day 18", "setting": "[1]", "value": 2.1},
      {"measurement": "Signs of arthritis Day 15 F/paw swell", "setting": "fore paw", "value": 2.5, "unit": "mm"},
      {"measurement": "Signs of arthritis Day 18 F/paw swell", "setting": "fore paw", "value": 3.2, "unit": "mm"},
      {"measurement": "Signs of arthritis Day 15 R/paw swell", "setting": "rear paw", "value": 0.7, "unit": "mm"},
      {"measurement": "Signs of arthritis Day 18 R/paw swell", "setting": "rear paw", "value": 0.8, "unit": "mm"}
    ]}
  ]
}
